Test results from patent US9469615B2, “Quinoxalines and AZA-quinoxalines as CRTH2 receptor modulators” (Merck Sharp & Dohme Corp., priority 2010, dated 2016).

What follows are molecules tested against T1, hCRTH2 (Homo sapiens, UniProt Q9Y5Y4) (assay: Radioligand binding assay ([3H]PGD2 competition, HEK-hCRTH2 membranes)). Conditions: [3H]PGD2 binding, rated A-E (Table A).
T1 construct: expressed in transfected cells; host or cells: HEK (human embryonic kidney) cells expressing hCRTH2; membrane preparation
T1 sequence (Q9Y5Y4 1-395): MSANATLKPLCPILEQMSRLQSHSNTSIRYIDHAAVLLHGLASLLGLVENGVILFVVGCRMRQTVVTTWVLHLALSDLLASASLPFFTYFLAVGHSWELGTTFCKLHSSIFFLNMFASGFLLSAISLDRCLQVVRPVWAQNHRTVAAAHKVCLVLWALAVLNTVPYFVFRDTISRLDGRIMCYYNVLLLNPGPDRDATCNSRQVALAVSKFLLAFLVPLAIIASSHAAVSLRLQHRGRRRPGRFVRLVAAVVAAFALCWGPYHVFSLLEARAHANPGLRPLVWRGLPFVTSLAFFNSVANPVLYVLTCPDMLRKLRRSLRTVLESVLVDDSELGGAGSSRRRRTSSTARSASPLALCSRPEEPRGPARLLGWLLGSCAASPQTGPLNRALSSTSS
Outline: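 Using membranes of an HEK line stably carrying hCRTH2, ligands were tested against [3H]PGD2 (3.0 nM) in pH 7.4 Tris buffer containing 2 mM MnCl2 and 1 mM EDTA. After one hour at room temperature, filters were washed cold and counted.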

SMILES | Ki [nM]
CN(C(=O)c1ccc2nc(-c3ccccc3)c(CCCCC(=O)O)nc2c1)C1CCOC1 (stereo not shown) [15Bo, 5-{7-[methyl (tetrahydrofuran-3-yl)carbamoyl]-3-phenylquinoxalin-2-yl} pentanoic acid] | 20.1 to 200
O=C(O)CCCCc1nc2cc(C(=O)NCc3ccc(C(F)(F)F)cc3)ccc2nc1-c1ccccc1 [15C, 5-(3-phenyl-7-{[4-(trifluoromethyl)benzyl]carbamoyl}quinoxalin-2-yl)pentanoic acid] | 0.1 to 2
C[C@@H](NC(=O)c1ccc2nc(-c3ccccc3)c(CCCCC(=O)O)nc2c1)c1ccc(F)cc1 [15D, 5-(7-{[(1R)-1-(4-fluorophenyl)ethyl]carbamoyl}-3-phenyl-quinoxalin-2-yl)pentanoic acid] | 0.1 to 2
C[C@H](NC(=O)c1ccc2nc(-c3ccccc3)c(CCCCC(=O)O)nc2c1)c1ccc(F)cc1 [15E, 5-(7-{[(1S)-1-(4-fluorophenyl)ethyl]carbamoyl}-3-phenylquinoxalin-2-yl)pentanoic acid] | 0.1 to 2
O=C(O)CCCCc1nc2cc(C(=O)N[C@@H](c3ccccc3)C(F)(F)F)ccc2nc1-c1ccccc1 [15F, 5-(3-phenyl-7-{[(1S)-2,2,2-trifluoro-1-phenylethyl]carbamoyl}quinoxalin-2-yl) pentanoic acid] | 2.1 to 20
O=C(O)CCCCc1nc2cc(C(=O)N[C@H](c3ccccc3)C(F)(F)F)ccc2nc1-c1ccccc1 [15G, 5-(3-phenyl-7-{[(1R)-2,2,2-trifluoro-1-phenylethyl]carbamoyl}quinoxalin-2-yl) pentanoic acid] | 2.1 to 20
O=C(O)CCCCc1nc2cc(C(=O)N3CCC4(CC3)CNC4)ccc2nc1-c1ccccc1 [15H, 5-[7-(2,7-diazaspiro-[3.5]non-7-ylcarbonyl)-3-phenylquinoxalin-2-yl]pentanoic acid] | 20.1 to 200
O=C(O)CCCCc1nc2cc(C(=O)N3CCNC(c4ccccc4)C3)ccc2nc1-c1ccccc1 (stereo not shown) [15J, 5-{3-phenyl-7-[(3-phenylpiperazin-1-yl)carbonyl]quinoxalin-2-yl}pentanoic acid] | 2.1 to 20
O=C(O)CCCCc1nc2cc(C(=O)N3CCNC(Cc4ccccc4)C3)ccc2nc1-c1ccccc1 (stereo not shown) [15K, 5-{7-[(3-benzylpiperazin-1-yl)carbonyl]-3-phenyl-quinoxalin-2-yl}pentanoic acid] | 2.1 to 20
CCN1CCN(C(=O)c2ccc3nc(-c4ccccc4)c(CCCCC(=O)O)nc3c2)CC1 [15L, 5-{7-[(4-ethylpiperazin-1-yl)carbonyl]-3-phenylquinoxalin-2-yl}pentanoic acid] | 20.1 to 200
COCCN1CCN(C(=O)c2ccc3nc(-c4ccccc4)c(CCCCC(=O)O)nc3c2)CC1 [15M, 5-(7-{[4-(2-methoxy-ethyl)piperazin-1-yl]-carbonyl}-3-phenyl-quinoxalin-2-yl) pentanoic acid] | 20.1 to 200
COc1ccc(C2CCN(C(=O)c3ccc4nc(-c5ccccc5)c(CCCCC(=O)O)nc4c3)C2)cc1 (stereo not shown) [15N, 5-(7-{[3-(4-methoxy-phenyl)pyrrolidin-1-yl]-carbonyl}-3-phenyl-quinoxalin-2-yl) pentanoic acid] | 2.1 to 20
O=C(O)CCCCc1nc2cc(C(=O)N3CCC(c4cccc(Cl)c4)C3)ccc2nc1-c1ccccc1 (stereo not shown) [15P, 5-(7-{[3-(3-chloro-phenyl)pyrrolidin-1-yl]-carbonyl}-3-phenyl-quinoxalin-2-yl) pentanoic acid] | 0.1 to 2
O=C(O)CCCCc1nc2cc(C(=O)NC(c3ccc(F)cc3)C(F)(F)F)ccc2nc1-c1ccccc1 (stereo not shown) [15Q, 5-(3-phenyl-7-{[2,2,2-trifluoro-1-(4-fluoro-phenyl)ethyl]carbamoyl}-quinoxalin-2-yl)pentanoic acid] | 0.1 to 2
O=C(O)CCCCc1nc2cc(C(=O)N3CCC(Cc4ccccc4)C3)ccc2nc1-c1ccccc1 (stereo not shown) [15R, 5-{7-[(3-benzylpyrrolidin-1-yl)carbonyl]-3-phenyl-quinoxalin-2-yl}pentanoic acid] | 0.1 to 2
O=C(O)CCCCc1nc2cc(C(=O)N3CCC(c4ccc(F)cc4)C3)ccc2nc1-c1ccccc1 (stereo not shown) [15S, 5-(7-{[3-(4-fluorophenyl)-pyrrolidin-1-yl]carbonyl}-3-phenylquinoxalin-2-yl)-pentanoic acid] | 0.1 to 2
O=C(O)CCCCc1nc2cc(C(=O)NCc3ccc(Cl)cc3)ccc2nc1-c1ccccc1 [15T, 5-{7-[(4-chlorobenzyl)-carbamoyl]-3-phenyl-quinoxalin-2-yl} pentanoic acid] | 0.1 to 2
O=C(O)CCCCc1nc2cc(C(=O)NCc3cccc(Cl)c3)ccc2nc1-c1ccccc1 [15U, 5-{7-[(3-chlorobenzyl)carbamoyl]-3-phenylquinoxalin-2-yl}pentanoic acid] | 2.1 to 20

SMILES | Ki [nM]
O=C(O)CCCCc1nc2cc(C(=O)NCc3ccccc3Cl)ccc2nc1-c1ccccc1 [15V, 5-{7-[(2-chlorobenzyl)carbamoyl]-3-phenylquinoxalin-2-yl}pentanoic acid] | 0.1 to 2
CC(C)(NC(=O)c1ccc2nc(-c3ccccc3)c(CCCCC(=O)O)nc2c1)c1ccccc1 [15X, 5-{7-[(1-methyl-1-phenylethyl)carbamoyl]-3-phenylquinoxalin-2-yl}pentanoic acid] | 0.1 to 2
O=C(O)CCCCc1nc2cc(C(=O)N3CCCC(c4ccccc4)C3)ccc2nc1-c1ccccc1 (stereo not shown) [15Y, 5-{3-phenyl-7-[(3-phenylpiperidin-1-yl)carbonyl]quinoxalin-2-yl}pentanoic acid] | 0.1 to 2
O=C(O)CCCCc1nc2cc(C(=O)NCc3ccccc3)ccc2nc1-c1ccccc1 [15Z, 5-[7-(benzylcarbamoyl)-3-phenylquinoxalin-2-yl]pentanoic acid] | 0.1 to 2
O=C(O)CCCCc1nc2cc(C(=O)N3CC4(CCNCC4)C3)ccc2nc1-c1ccccc1 [15i, 5-[7-(2,7-diazaspiro-[3.5]non-2-ylcarbonyl)-3-phenylquinoxalin-2-yl]pentanoic acid] | 201 to 700
O=C(O)CCCCc1nc2cc(C(=O)N3CCN(S(=O)(=O)c4ccccc4)CC3)ccc2nc1-c1ccccc1 [15o, 5-(3-phenyl-7-{[4-(phenylsulfonyl)piperazin-1-yl]carbonyl}quinoxalin-2-yl)pentanoic acid] | 2.1 to 20
O=C(O)CCCCc1nc2cc(C(=O)NCc3cccc(C(F)(F)F)c3)ccc2nc1-c1ccc(Cl)cc1 [16AB, 3-(4-chlorophenyl)-7-[[[[3-(trifluoromethyl)phenyl]methyl]amino]carbonyl]-2-quinoxalinepentanoic acid] | 0.1 to 2
O=C(O)CCCCc1nc2cc(C(=O)NCc3cccc(OC(F)(F)F)c3)ccc2nc1-c1ccc(Cl)cc1 [16AC, 3-(4-chlorophenyl)-7-[[[[3-(trifluoromethoxy)phenyl]methyl]amino]carbonyl]-2-quinoxalinepentanoic acid] | 0.1 to 2
C[C@@H](NC(=O)c1ccc2nc(-c3ccc(Cl)cc3)c(CCCCC(=O)O)nc2c1)c1ccc(Cl)cc1 [16AD, 3-(4-chlorophenyl)-7-[[[(R)-(4-chlorophenyl)ethyl]amino]carbonyl]-2-quinoxalinepentanoic acid] | 0.1 to 2
C[C@H](NC(=O)c1ccc2nc(-c3ccc(Cl)cc3)c(CCCCC(=O)O)nc2c1)c1ccc(Cl)cc1 [16AE, 3-(4-chlorophenyl)-7-[[[1(S)-(4-chlorophenyl)ethyl]amino]carbonyl]-2-quinoxalinepentanoic acid] | 0.1 to 2
O=C(O)CCCCc1nc2cc(C(=O)N3CC(c4ccccc4)C3)ccc2nc1-c1ccc(Cl)cc1 [16AF, 3-(4-chlorophenyl)-7-[(3-phenyl-1-azetidinyl)carbonyl]-2-quinoxalinepentanoic acid] | 0.1 to 2
O=C(O)CCCCc1nc2cc(C(=O)N3CCN(c4ccccc4)CC3)ccc2nc1-c1ccc(Cl)cc1 [16AG, 3-(4-chlorophenyl)-7-[(4-phenyl-1-piperazinyl)carbonyl]-2-quinoxalinepentanoic acid] | 0.1 to 2
O=C(O)CCCCc1nc2cc(C(=O)N[C@H](c3ccccc3)C(F)(F)F)ccc2nc1-c1ccc(Cl)cc1 [16AH, 3-(4-chlorophenyl)-7-[[(2,2,2-trifluoro-1(R)-phenylethyl)amino]carbonyl]-2-quinoxalinepentanoic acid] | 2.1 to 20
O=C(O)CCCCc1nc2cc(C(=O)N3CC=C(c4ccccc4)CC3)ccc2nc1-c1ccc(Cl)cc1 [16AJ, 3-(4-chlorophenyl)-7-[(3,6-dihydro-4-phenyl-1(2H)-pyridinyl)carbonyl]-2-quinoxalinepentanoic acid] | 0.1 to 2
N#CC1(c2ccccc2)CCN(C(=O)c2ccc3nc(-c4ccc(Cl)cc4)c(CCCCC(=O)O)nc3c2)CC1 [16AK, 3-(4-chlorophenyl)-7-[(4-cyano-4-phenyl-1-piperidinyl)carbonyl]-2-quinoxalinepentanoic acid] | 0.1 to 2
C[C@@H](NC(=O)c1ccc2nc(-c3ccc(Cl)cc3)c(CCCCC(=O)O)nc2c1)c1ccccc1 [16AL, 3-(4-chlorophenyl)-7-[[(1(R)-phenylethyl)amino]carbonyl]-2-quinoxalinepentanoic acid] | 0.1 to 2
C[C@H](NC(=O)c1ccc2nc(-c3ccc(Cl)cc3)c(CCCCC(=O)O)nc2c1)c1ccccc1 [16AM, 3-(4-chlorophenyl)-7-[[(1-(S)-phenylethyl)amino]carbonyl]-2-quinoxalinepentanoic acid] | 0.1 to 2
O=C(O)CCCCc1nc2cc(C(=O)N[C@H]3CCCc4ccccc43)ccc2nc1-c1ccc(Cl)cc1 [16AN, 3-(4-chlorophenyl)-7-[[(1,2,3,4-tetrahydro-1(S)-naphthalenyl)amino]carbonyl]-2-quinoxalinepentanoic acid] | 0.1 to 2

Same assay, conditions: [3H]PGD2 binding, values in text

SMILES | Ki [nM]
O=C(O)CCCCc1nc2cc(C(=O)N3CCC4(CC3)CNC4)ccc2nc1-c1ccccc1 [15H, 5-[7-(2,7-diazaspiro-[3.5]non-7-ylcarbonyl)-3-phenylquinoxalin-2-yl]pentanoic acid] | 152
O=C(O)CCCCc1nc2cc(C(=O)N3CC4(CCNCC4)C3)ccc2nc1-c1ccccc1 [15i, 5-[7-(2,7-diazaspiro-[3.5]non-2-ylcarbonyl)-3-phenylquinoxalin-2-yl]pentanoic acid] | 283
O=C(O)CCCCc1nc2cc(C(=O)N3CCN(S(=O)(=O)c4ccccc4)CC3)ccc2nc1-c1ccccc1 [15o, 5-(3-phenyl-7-{[4-(phenylsulfonyl)piperazin-1-yl]carbonyl}quinoxalin-2-yl)pentanoic acid] | 16.7
O=C(O)CCCCc1nc2cc(C(=O)N3CCN(c4ccccc4)CC3)ccc2nc1-c1ccc(Cl)cc1 [16AG, 3-(4-chlorophenyl)-7-[(4-phenyl-1-piperazinyl)carbonyl]-2-quinoxalinepentanoic acid] | 1.2
